Laboratory results from patent US20220073536A1 (Rigel Pharmaceuticals, Inc., priority 2003, published 2022).
pIC50: −log10 of the molar value. Like-named read-outs stand apart in the source and are kept apart here.

What was measured:
[1] = system: cultured human mast cells (CHMC); assay: CHMC low cell density ionomycin activation: tryptase assay; format: cell-based; details: low cell density CHMC, read-out: LD Tryptase, CHMC, Iono, 3 pt
[2] = system: cultured human mast cells (CHMC); assay: CHMC low cell density IgE activation: tryptase assay; format: cell-based; details: IgE activation
Method in brief: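 Low-density CHMC, 1000-1500 cells/well in MT; 1 hr 37 °C; anti-IgE challenge 30 min 37 °C; supernatant tryptase via fluorogenic substrate, 30 min RT.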

Syk kinase = molecular target: T1, Syk kinase (Homo sapiens, UniProt P43405); assay: Syk kinase biochemical fluorescence polarization assay; details: read-out: fp_syk, 11 pt
T1 construct: purchased Upstate, Lake Placid N.Y
Protocol: Many of the 2,4-pyrimidinediamine compounds were tested for the ability to inhibit Syk kinase catalyzed phosphorylation of a peptide substrate in a biochemical fluorescenced polarization assay with isolated Syk kinase. In this experiment, Compounds were diluted to 1% DMSO in kinase buffer (20 mM HEPES, pH 7.4, 5 mM MgCl2, 2 mM MnCl2, 1 mM DTT, 0.1 mg/mL acetylated Bovine Gamma Globulin). Compound in 1% DMSO (0.2% DMSO final) was mixed with ATP/substrate solution at room temperature. Syk kinase (Upstate, Lake Placid N.Y.) was added to a final reaction volume of 20 uL, and the reaction was incubated for 30 minutes at room temperature. […] EDTA (10 mM final)/anti-phosphotyrosine antibody (1× final)/fluorescent phosphopeptide tracer (0.5× final) was added in FP Dilution Buffer to stop the reaction for a total volume of 40 uL according to manufacturer's instructions (PanVera Corporation) The plate was incubated for 30 minutes in the dark at room temperature. Plates were read on a Polarion fluorescence polarization plate reader (Tecan). Data were converted to amount of phosphopeptide present using a calibration curve generated by competition with the phosphopeptide competitor provided in the Tyrosine Kinase Assay Kit, Green (PanVera Corporation).

[3] = Homo sapiens, Mast cell, tryptase, 3 pt
[4] = Homo sapiens, Mast cell, low cell density CHMC, tryptase, 3 pt, read-out: LD Tryptase, CHMC, IgE, 3 pt
[5] = Homo sapiens, Mast cell, low cell density CHMC, tryptase, 8 pt, read-out: LD Tryptase, CHMC, IgE, 8 pt
[6] = low cell density, 3 pt, read-out: LD Tryptase, CHMC, IgE, 3 pt
[7] = low cell density, 8 pt, read-out: LD Tryptase, CHMC, IgE, 8 pt
[8] = Homo sapiens, Mast cell, low cell density CHMC, tryptase release, 8 pt, read-out: LD Tryptase, CHMC, IgE, 8 pt

Molecule	pIC50 [2, 4]	pIC50 [2, 5]	pIC50 (Syk kinase; isolated Syk kinase, 11 pt)	further results
CNC(=O)CNC(=O)c1ccc(Nc2ncc(F)c(Nc3ccc4c(c3)C(N)CCO4)n2)cc1 (racemic) [Compound 1299, (R,S)-N4-[4-Amino-3,4-dihydro-2H-1-benzopyran-6-yl]-5-fluoro-N2-[4-[N-(N-methylamino)carbonylmethylene]aminocarbonylphenyl]-2,4-pyrimidinediamine]	> 5.00	> 5.00	> 5.00	pIC50 [1, 3]: < 5.00
COc1cc(Nc2nc(Nc3cc(C)cc(C)c3)ncc2F)cc(OC)c1 [Compound 350]	> 5.00	> 5.00	> 5.00	pIC50 [1, 3]: < 5.00
CNC(=O)c1cc2cccc(Nc3ncc(F)c(Nc4cc(OC)cc(OC)c4)n3)c2[nH]1 [Compound 368, N4-(3,5-Dimethoxyphenyl)-5-fluoro-N2-[2-(N-methylamino)carbonylindol-7-yl]-2,4-pyrimidinediamine]	> 5.00		> 5.00	
COc1cc(Nc2nc(Nc3cccc4cc(C(=O)N(C)CCO)[nH]c34)ncc2F)cc(OC)c1 [Compound 384]	> 5.00	> 5.00	> 5.00	
COc1cc(OC)cc(N(C)c2nc(Nc3cc(C)cc(C)c3)ncc2F)c1 [Compound 399, N4-(3,5-Dimethoxyphenyl)-N2-(3,5-dimethylphenyl)-5-fluoro-N4-methyl-2,4-pyrimidinediamine]	> 5.00	> 5.00	> 5.00	pIC50 [1, 3]: < 5.00
COc1ccc(N(C)c2nc(Cl)ncc2F)cc1OC [Compound 417]	< 5.00	< 5.00	< 5.00	pIC50 [1, 3]: < 5.00
COc1ccc(Nc2nc(Nc3cccc(-c4ncco4)c3)ncc2F)cc1OC [Compound 423, N4-(3,4-Dimethoxyphenyl)-5-fluoro-N2-[3-(oxazol-2-yl)phenyl]-2,4-pyrimidinediamine]	> 5.00	> 5.00	> 5.00	pIC50 [1, 3]: < 5.00
COc1ccc(Nc2nc(Nc3cccc(-c4nnc(C(C)(C)C)o4)c3)ncc2F)cc1OC [Compound 530, N2-[ (2-tert-Butyl-1,3,4-oxadiazol-5-yl)phenyl]-N4-(3,4-dimethoxyphenyl)-5-fluoro-2,4-pyrimidinediamine]				pIC50 [2, 6]: > 5.00; pIC50 [2, 7]: > 5.00; pIC50 (Syk kinase; 11 pt): > 5.00
CNC(=O)COc1ccc(Nc2nc(Nc3ccc4c(ccn4CC(=O)NC)c3)ncc2F)cc1Cl [Compound 652, N4-[3-Chloro-4-(N-methylamino)carbonylmethyleneoxyphenyl]-5-fluoro-N2-[1-(N-methylamino)carbonylmethyleneindol-5-yl]-2,4-pyrimidinediamine]				pIC50 ([2]; Homo sapiens, Mast cell, low cell density CHMC, tryptase release, 8 point, read-out: LD Tryptase, CHMC, IgE, 8 pt): > 5.00; pIC50 (Syk kinase; isolated Syk kinase, 11 point): > 5.00
COc1ccc(Nc2nc(Nc3ccc4c(c3)c(N)nn4C)ncc2F)cc1Cl [Compound 804, N2-(3-Amino-1-methylindazol-5-yl)-N4-(3-chloro-4-methoxyphenyl)-5-fluoro-2,4-pyrimidinediamine]			> 5.00	pIC50 [2, 8]: > 5.00
C[C@@H]1Oc2ccc(Nc3nc(Nc4ccc5c(c4)c(N)nn5C)ncc3F)cc2NC1=O [Compound 807, (S)-N2-(3-Amino-1-methylindazol-5-yl)-5-fluoro-N4-(2-methyl-3-oxo-4H-benz[1,4]oxazin-6-yl)-2,4-pyrimidinediamine]			> 5.00	pIC50 [2, 8]: > 5.00
COc1ccc(Nc2nc(Nc3ccc4c(cnn4CCCNC(C)=O)c3)ncc2F)cc1Cl [Compound 819, N2-[1-[3-(N-Acetylamino)propyl]indazol-5-yl]-N4-(3-chloro-4-methoxyphenyl)-5-fluoro-2,4-pyrimidinediamine]			> 5.00	pIC50 [2, 8]: > 5.00
Cn1c(N2CCOCC2)nc2cc(Nc3ncc(F)c(Nc4ccc(Cl)c(Cl)c4)n3)ccc21 [Compound 942, N4-(3,4-Dichlorophenyl)-5-fluoro-N2-[1-methyl-2-(4-morpholino)benzimidazol-5-yl]-2,4-pyrimidinediamine]				pIC50 [2, 6]: > 5.00; pIC50 [2, 7]: > 5.00; pIC50 (Syk kinase; 11 pt): > 5.00
COc1ccc(Nc2nc(Nc3ccc4c(c3)nc(N3CCOCC3)n4C)ncc2F)cc1Cl [Compound 943, N4-(3-Chloro-4-methoxyphenyl)-5-fluoro-N2-[1-methyl-2-(4-morpholino)benzimidazol-5-yl]-2,4-pyrimidinediamine]				pIC50 ([2]; Homo sapiens, Mast cell, low cell density, 3 pt, read-out: LD Tryptase, CHMC, IgE, 3 pt): > 5.00; pIC50 (Syk kinase; 11 pt): > 5.00
Fc1cnc(Nc2ccc3[nH]c(N4CCOCC4)nc3c2)nc1Nc1ccc(Cl)c(Cl)c1 [Compound 975, N4-(3,4-Dichlorophenyl)-5-fluoro-N2-[2-(4-morpholino)-1H-benzimidazol-5-yl]-2,4-pyrimidinediamine]				pIC50 ([2]; Homo sapiens, Mast cell, low cell density, 8 pt, read-out: LD Tryptase, CHMC, IgE, 8 pt): > 5.00; pIC50 (Syk kinase; 11 pt): > 5.00
CN1CCN(c2ccc(Nc3ncc(F)c(NC4CCCCC4)n3)cc2Cl)CC1 [Compound 1191, N2-[3-Chloro-4-(4-methylpiperazino)phenyl]-N4-cyclohexyl-5-fluoro-2,4-pyrimidinediamine]	> 5.00		> 5.00	
Nc1nc(Nc2nc(Nc3ccc4cn[nH]c4c3)ncc2F)n[nH]1 [Compound 1255]		> 5.00	> 5.00	
CCN(CC)CCNC(=O)c1ccc(Nc2ncc(F)c(Nc3ccc(OC)c(Cl)c3)n2)cc1 [Compound 1320, N4-(3-Chloro-4-methoxyphenyl)-5-fluoro-N2-(4-[2-[N,N-diethylamino]ethyleneaminocarbonyl]phenyl)-2,4-pyrimidinediamine]		> 5.00	> 5.00	
COc1ccc(Nc2nc(Nc3ccc(C(N)=O)cc3)ncc2F)cc1Cl [Compound 1321, N2-(4-Aminocarbonylphenyl)-N4-(3-chloro-4-methoxyphenyl)-5-fluoro-2,4-pyrimidinediamine]		> 5.00	> 5.00	
CC1(C)Oc2ccc(Nc3ncc(F)c(Nc4ccc(C(N)=O)cc4)n3)cc2NC1=O [Compound 1337]	> 5.00	> 5.00	> 5.00	
Cc1noc(COc2ccc(Nc3nc(Nc4ccc(C(N)=O)cc4)ncc3F)cc2)n1 [Compound 1341, N2-(4-Aminocarbonylphenyl)-5-fluoro-N4-(4-[3-methyl-1,2,4-oxadiazol-5-yl]methyleneoxyphenyl)-2,4-pyrimidinediamine]	> 5.00	> 5.00	> 5.00	
CCN(CC)CCNC(=O)c1ccc(Nc2ncc(F)c(Nc3ccc(OCc4nc(C)no4)cc3)n2)cc1 [Compound 1343, N2-(4-[2-[N,N-Diethylamino]ethyleneaminocarbonyl]phenyl)-5-fluoro-N4-(4-[3-methyl-1,2,4-oxadiazol-5-yl]methyleneoxyphenyl)-2,4-pyrimidinediamine]	> 5.00	> 5.00	> 5.00	
Cc1noc(COc2ccc(Nc3nc(Nc4cc(Cl)c(O)c(Cl)c4)ncc3F)cc2)n1 [Compound 1344, N2-(3,5-Dichloro-4-hydroxyphenyl)-5-fluoro-N4-(4-[3-methyl-1,2,4-oxadiazol-5-yl]methyleneoxyphenyl)-2,4-pyrimidinediamine]	> 5.00	< 5.00	> 5.00	
COc1cc(Cl)cc(Nc2ncc(F)c(Nc3ccc(OCc4nc(C)no4)cc3)n2)c1 [Compound 1345, N2-(3-Chloro-5-methoxyphenyl)-5-fluoro-N4-(4-[3-methyl-1,2,4-oxadiazol-5-yl]methyleneoxyphenyl)-2,4-pyrimidinediamine]	< 5.00		> 5.00	
N4- (4-Chloro-3-methoxyphenyl)-5-fluoro-N2-[1-(methoxycarbonylmethylene)indol-5-yl]-2,4-pyrimidinediamine [Compound 645]				pIC50 ([1]; tryptase release, 3 point): < 5.00; pIC50 ([2]; low cell density CHMC, tryptase release, 3 point, read-out: LD Tryptase, CHMC, IgE, 3 pt): > 5.00; pIC50 ([2]; low cell density CHMC, tryptase release, 8 point, read-out: LD Tryptase, CHMC, IgE, 8 pt): > 5.00
